Assay [1] concerns Kanzawa Spider Mite (Tetranychus kanzawai). Kind of assay: Test B.1.2 Foliar assay Kanzawa spider mite on potted cotton plants. The following applies: cotton plants sprayed, assessed after 24, 72 and 120 hours, read-out: mortality in comparison with untreated controls. Format: in vivo.
The test system of assay [2] is 2-Spotted Spider Mite (Tetranychus urticae). The experiment in a line: Test B.1.1 Foliar assay 2-spotted spider mite on Sieva lima bean plants. Format: in vivo. The following applies: 120 h, test solution 100 ppm, infested lima bean plants dipped, counts after 5 days, read-out: mortality in comparison with untreated controls. Here is the method:
The active compounds were formulated in 50:50 (vol:vol) acetone:water and 100 ppm Kinetica™ surfactant.
At about 2 hours before treatment Sieva lima bean plants with primary leaves expanded to 7-12 cm were infested by placing on each a small piece from an infested leaf (with about 100 mites) taken from the main colony in order to allow the mites to move over to the test plant to lay eggs. The piece of leaf used to transfer the mites was removed. The newly-infested plants were dipped in the test solution and allowed to dry. The test plants were kept under fluorescent light (24 hour photoperiod) at about 25° C. and about 20-40% relative humidity. After 5 days mortality counts were made.

Assay [3] concerns two spotted spider mites. The experiment in a line: Test B.1.4 Seed treatment assay in cotton. The following applies: cotton seed coated 0.5 mg active ingredient/seed, assessed 4 days after release of mites. Type of assay: in vivo.
Assay [4] relates to two spotted spider mites (Tetranychus urticae). To be noted: soil drench 4 mg active ingredient/plant, mites released 4 days after treatment, assessed 5 days after release.
For assay [5], the system named is two spotted spider mites. Kind of assay: Test B.1.5 Seed treatment assay in cucumber. To be noted: cucumber seed coated 0.5 mg active ingredient/seed, assessed 4 days after release of mites. Format: in vivo. As to the method: Test solution comprising a compound of the present invention is prepared at desired concentration using water and acetone as organic solvent. Cucumber seeds are coated with such prepared test solution applied at the rate of 0.5 mg active ingredient/seed and sown to the pots. After plant emergence (eleven days after treatment & planting), a mixed population of two spotted spider mites is released onto the leaves.
Four days after the release of spider mites, the acaricidal efficacy is measured by means of the rating of the damage caused by spider mites.
Percent damage as lesions was visually assessed, and means were calculated for each treatment. Mean percent damage reduction relative to the solvent blank was calculated as 100−(mean % lesions in treatment/mean % lesions in Solvent blank)*100.

Assay [6] relates to root-knot nematode (Meliodogyne spp.) juveniles. The experiment in a line: Test B.2.1 Tomato soil drench against root-knot nematode juveniles. Format: in vivo. To be noted: soil drench 0.75 mg active ingredient/plant, galls counted at 14 DAT. Here is the method:
Tomatoes were grown in potting soil until the approximate first true leaf stage (about 2 weeks after planting). Tomatoes were transplanted into play sand. Seven days after transplant, technical material of test compound was dissolved in acetone, and then water was added to achieve a final concentration of 50% acetone. 1 mL of solution was pipetted onto the tomato root zone. One day after treatment (DAT), each pot was infested with about 500 root-knot nematode (Meliodogyne spp.) juveniles in 1 ml distilled water. Immediately after infestation, plants were placed in the greenhouse. Plants were top watered and fertilized daily. At 14 DAT, the tomato roots were rinsed off, and the number of galls was counted. Replication was 5-times.

For orientation: mortality means the share of the test organisms that died. `Cc1cc(F)c(-n2cnc3ccccc3c2=O)cc1SCC(F)(F)F` [CE.I.34, 2-(2,2,2-trifluoroethylsufanyl)-4-(4-oxo-quinazolin-3-yl)-5-fluoro-toluol]: the mortality at 100 ppm in assay [1] and in assay [2] was at least 70% each time.
`Cc1cc(F)c(-n2cnc3ccc(OC(F)(F)F)cc3c2=O)cc1[S+]([O-])CC(F)(F)F` (centres unmarked) [CE.I.33, 6-Trifluormethoxy-3-[2-fluoro-4-methyl-5-2(2,2,2-trifluoroethanesulfinyl)-phenyl]-3H-quinazolin-4-one]: the mortality at 100 ppm in assay [1] and in assay [2] was at least 70% each time.
As for `Cc1cc(F)c(-n2cnc3ccccc3c2=O)cc1[S+]([O-])CC(F)(F)F` (centres unmarked) [CE.I.35, 2-(2,2,2-trifluoroethylsufinyl)-4-(4-oxo-quinazolin-3-yl)-5-fluoro-toluol], the mortality at 100 ppm in assay [1] and in assay [2] was at least 70% in each case. The “mean percent damage reduction in the cotyledon stage” value with two spotted spider mites [3] is “at least 90%”; in the assay on two spotted spider mites [5], “at least 50%”. In assay [4], the “mean percent damage reduction in comparison with untreated controls” value was “at least 70%”.
For the compound `Cc1cc(F)c(-n2cnc3ccc(OC(F)(F)F)cc3c2=O)cc1SCC(F)(F)F` [CE.I.32, 6-Trifluoromethoxy-3-[2-fluoro-4-methyl-5-2(2,2,2-trifluoroethylsulfanyl)-phenyl]-3H-quinazolin-4-one], the mortality at 100 ppm in assay [2] is at least 70%.
On to `Cc1cc(F)c(-n2cnc3ccc(F)cc3c2=O)cc1[S+]([O-])CC(F)(F)F` (centres unmarked) [CE.I.31, 6-Fluoro-3-[2-fluoro-4-methyl-5-2(2,2,2-trifluoroethanesulfinyl)-phenyl]-3H-quinazolin-4-one], for which the “mean percent reduction of galls in comparison with untreated controls” value in assay [6] was “at least 90%”. Also, the mortality at 100 ppm in assay [1] and in assay [2] was at least 70% in each case.
Consider `Cc1cc(F)c(-n2cnc3ccc(F)cc3c2=O)cc1SCC(F)(F)F` [CE.I.30, 6-Fluoro-3-[2-fluoro-4-methyl-5-2(2,2,2-trifluoroethylsulfanyl)-phenyl]-3H-quinazolin-4-one], for which the mortality at 100 ppm in assay [2] is at least 70%.

Source of the values: US20140213445A1, “Use of Pesticidal Active 3-Arylquinazolin-4-One Derivatives in Soil Application Methods” (BASF SE, priority 2011, published 2014).
